Data from patent US10738084B2, “Macrocycles” (Sentry Therapeutics Limited, priority 2015, dated 2020).

System: IL-2 production by Jurkat cells
Assay: Inhibition of IL-2 production by Jurkat cells after PMA/PHA co-stimulation (ELISA)
Type: cell-based, human
Conditions: PMA and PHA co-stimulation; for IL-2% Inhibition: 24 hours
Protocol: Compounds of the invention were tested for their activity as inhibitors of T Cell stimulation by measuring the effect on IL-2 production by Jurkat cells following PMA (phorbol 12-myristate 13-acetate) and PHA (phytohemagglutinin) co-stimulation. All new compounds were tested at 0.1 uM, 1 uM and 10 uM. Cyclosporine A (control) was also tested at 0.1 uM, 1 uM and 10 uM. All compounds to be tested were dissolved in dimethyl sulfoxide. Cytotoxicity was evaluated with parallel Alamar Blue plates. Jurkat cells were seeded at 2×10^5 cells per well in 200 μL growth media in a clear, U-bottom 96-well plate. Cells were cultured in RPMI 1640 medium, 10% fetal bovine serum, and L-Glutamine with incubation at 37° C. with 5% carbon dioxide. After 1 hour of incubation the cells were stimulated with PMA (12.5 uL of a 1 ng/mL solution in 1% DMSO/media) and PHA (12.5 uL of a 5 ug/mL solution in PBS). After 24 hours the sample supernatants were harvested and stored at −80° C. A sample of the supernatant (25 uL) was diluted with RPMI (25 uL) and the concentration of human IL-2 was determined by ELISA (Pierce, EH2IL25).

| SMILES | IL-2% Inhibition (1 uM) [%] | IL-2% Inhibition (10 uM) [%] | IC50 [µM] |
| --- | --- | --- | --- |
| CCC1CC(C)C([C@H]2C(=O)N[C@@H](CC)C(=O)N(C)CC(=O)N(C)[C@@H](CC(C)C)C(=O)N[C@@H](C(C)C)C(=O)N(C)[C@@H](CC(C)C)C(=O)N[C@@H](C)C(=O)N[C@H](C)C(=O)N(C)[C@@H](CC(C)C)C(=O)N(C)[C@@H](CC(C)C)C(=O)N(C)[C@@H](C(C)C)C(=O)N2C)O1 (stereo partly drawn) [Example A, 1-[(2S)—N-Methyl-2-[tetrahydro-5-ethyl-3-methyl-2-furanyl]glycine]-cyclosporin A] | 84 | – | – |
| CCC1CC(C)C([C@H]2C(=O)N[C@@H](CC)C(=O)N(C)CC(=O)N(C)[C@@H](CC(C)(C)O)C(=O)N[C@@H](C(C)C)C(=O)N(C)[C@@H](CC(C)C)C(=O)N[C@@H](C)C(=O)N[C@H](C)C(=O)N(C)[C@@H](CC(C)C)C(=O)N(C)[C@@H](CC(C)C)C(=O)N(C)[C@@H](C(C)C)C(=O)N2C)O1 (stereo partly drawn) [Example C, 1-[(2S)—N-Methyl-2-[tetrahydro-5-ethyl-3-methyl-2-furanyl]glycine]-4-(4-hydroxy-N-methyl-L-leucine)-cyclosporin A] | 16 | – | – |
| C=CC1CC(C)C(C2C(=O)NC(CC)C(=O)N(C)CC(=O)N(C)C(CC(C)(C)O)C(=O)NC(C(C)C)C(=O)N(C)C(CC(C)C)C(=O)NC(C)C(=O)NC(C)C(=O)N(C)C(CC(C)C)C(=O)N(C)C(CC(C)C)C(=O)N(C)C(C(C)C)C(=O)N2C)O1 [Example D, 1-[(2S)—N-methyl-2-[tetrahydro-5-ethenyl-3-methyl-2-furanyl]glycine]-4-(4-hydroxy-N-methyl-L-leucine)-cyclosporin A] | 8 | – | – |
| CCC1CC(C)C([C@H]2C(=O)N[C@@H](CC)C(=O)N(C)[C@H](SCCN(C)C)C(=O)N(C)[C@@H](CC(C)(C)O)C(=O)N[C@@H](C(C)C)C(=O)N(C)[C@@H](CC(C)C)C(=O)N[C@@H](C)C(=O)N[C@H](C)C(=O)N(C)[C@@H](CC(C)C)C(=O)N(C)[C@@H](CC(C)C)C(=O)N(C)[C@@H](C(C)C)C(=O)N2C)O1 (stereo partly drawn) [Example F, 1-[(2S)—N-methyl-2-[tetrahydro-5-ethyl-3-methyl-2-furanyl]glycine]-3-[2R-[[2-(dimethylamino)ethyl]thio]-N-methylglycine]-4-(4-hydroxy-N-methyl-L-leucine)-cyclosporin A] | 2 | 5 | – |
| C=CC1CC(C)C(C2C(=O)NC(CC)C(=O)N(C)C(SCCN(C)C)C(=O)N(C)C(CC(C)(C)O)C(=O)NC(C(C)C)C(=O)N(C)C(CC(C)C)C(=O)NC(C)C(=O)NC(C)C(=O)N(C)C(CC(C)C)C(=O)N(C)C(CC(C)C)C(=O)N(C)C(C(C)C)C(=O)N2C)O1 [Example G, 1-[(2S)—N-methyl-2-[tetrahydro-5-ethenyl-3-methyl-2-furanyl]glycine]-3-[2R-[[2-(dimethylamino)ethyl]thio]-N-methylglycine]-4-(4-hydroxy-N-methyl-L-leucine)-cyclosporin A] | – | – | > 10 |
